Data reported in US20260021147A1, “COMPOSITIONS AND METHODS FOR TREATING INFLAMMATORY DISEASE” (The Regents of the University of Michigan, priority 2022, published 2026).
“Also recorded” adds a separate entry of the source.

How the values were obtained:
[1] = Pharmacokinetics of meropenem in cecal contents by LC-MS; assay type: in vivo, C57BL/6 mice; conditions: 10 mg subcutaneous injection; 4, 8, 24, 48 and 96 hours
Description: C57BL/6 mice were treated with 10 mg of meropenem by subcutaneously injection. Cecal contents were collected prior to, 4, 8, 24, 48, and 96 hours after meropenem injection. To determine the relative abundance of meropenem in mouse cecum samples, extracts were prepared and analyzed with a Thermo Scientific TSQ Quantiva triple quadruple mass spectrometer coupled with a Dionex UltiMate 3000 HPLC system. Approximately 600 mgs of mouse cecal contents were homogenized with a Precellys Tissue Homogenizer. Metabolites were extracted using 100% acetonitrile. The tissue lysates were vortexed, centrifuged at 17,000 g for 5 min 5 at 4° C., and organic layers were transferred to clean tubes, followed by evaporation to dryness under nitrogen. Dried extracts were reconstituted in 50/50 (v/v) water/Acetonitrile, and 5 μL was injected for analysis by LC-MS. The mobile phase A is 100% water and mobile phase B is 0.1% Formic Acid in acetonitrile. Separation of meropenem was achieved on an Agilent SB-C18, 1.8 μm, 100×3 mm column. The flow rate was 250 μL/min at 35° C., and the gradient elution program was: 0-1 min, 5% MPB; 1-5 min, 5-50% MPB; 5-6 min, 50-95% MPB; 6-10 min, 95% MPB; 10-10.1 min, 95-5% MPB. The total run time was 15 min. The mass spectrometer was operated in the MRM positive ion electrospray mode with the transition m/z 384.1->68.0. […]

[2] = system: Bacteroides thetaiotaomicron (MDA-JAX BT001); test: MIC of meropenem with MIC test strips; assay type: cell-based; conditions: mouse-derived BT
Description: Mouse-derived BT (MDA-JAX BT001), Enterococcus faecalis (MDA-JAX EF001) and Clostridium disporicum (MDA-JAX CD001), Clostridium saudiense (MDA-JAX CS001), and Lachnospiraceae unclassified (MDA-JAX LS001) were isolated and cultured from mouse stool samples suspended in 1 ml of chilled 20% anaerobic glycerol in a Whitley anaerobic chamber (10% H2, 5% CO2 and 85% N2). Human-derived BT (ATCC 29148) was purchased from ATCC. Bacterial number was quantified using a Nexcelom Cellometer cell counter with SYTO™ BC dye and propidium iodide. For measuring MICs against meropenem, bacteria were cultured on BYE plates including 5% sterilized rumen fluid (Fisher Scientific) with MIC test strips (Liofilchem™ MTS™ Meropenem [MRP] 0.016-256 μg/mL, Fisher Scientific). Bacterial growth experiments were performed in a bacterial liquid media, BYEM10, composed of a hybrid of BHI and M10 supplemented with yeast extract (Table 4). Bacteria were cultured up to 48 hours at a starting concentration of 1×10^6 bacteria/ml in BYEM10 broth (pH 7.2) with and without 5 mg/ml of porcine gastric mucin (M1778, Sigma-Aldrich) with or without 0.5 mg/ml of D-(+)-xylose (X3877), D-(+)-mannose (M8574, Sigma-Aldrich) or D-(+)-glucose (G8270). Optical densities (OD600 nm) of bacterial cultures were measured with a BioTek EPOCH 2 plate reader.

intestinal microbiota = test: 16S rRNA sequencing of fecal and mucosal microbiome in mice; assay type: in vivo
Description: Fecal samples which were collected from patients and mice and colonic mucosal samples, which were collected from mice were weighed before DNA isolation. […] The quality and quantity of the barcoded amplicons were assessed on an Agilent 4200 TapeStation system (Agilent) and Qubit Fluorometer (Thermo Fisher Scientific), and libraries were prepared after pooling at equimolar ratios. The final libraries were purified using QIAquick gel extraction kit (28706X4, Qiagen) and sequenced with a 2×250 base pair paired-end protocol on the Illumina MiSeq platform.
For differential abundance analysis, abundances of sequences belonging to taxonomical groups were included for analysis using the Mann-Whitney U test and adjusted for multiple comparisons using the method of Benjamini-Hochberg. Paired samples were analyzed using the Wilcoxon signed rank test with adjustment for multiple comparisons.

[3] = Carbohydrates analysis of mouse feces by IC-MS; assay type: in vivo; conditions: allogeneic mice, day 18
Description: To determine the relative abundance of carbohydrates in mouse feces samples, extracts were prepared and analyzed by ultra-HRMS. Fecal pellets were homogenized with a Precellys Tissue Homogenizer. Metabolites were extracted using 1 mL ice-cold 80/20 (v/v) methanol/water. Extracts were centrifuged at 17,000 g for 5 min at 4° C., and supernatants were transferred to clean tubes, followed by evaporation to dryness under nitrogen. Dried extracts were reconstituted in deionized water, and 5 μL was injected for analysis by IC-MS. IC mobile phase A (MPA; weak) was water, and mobile phase B (MPB; strong) was water containing 100 mM KOH. A Thermo Scientific Dionex ICS-5000+ system included a Thermo CarboPac PA-20-Fast column (4 μm particle size, 100×2 mm) with column compartment kept at 30° C. The autosampler tray was chilled to 4° C. The mobile phase flow rate was 200 μL/min, and the gradient elution program was: 0-0.5 min, 1% MPB; 0.5-10 min, 1-5% MPB; 10-15 min, 5-95% MPB; 15-20 min, 95% MPB; 20.5-25, 95-1% MPB. The total run time was 25 min. To assist the desolvation for better sensitivity, methanol was delivered by an external pump and combined with the eluent via a low dead volume mixing tee. Data were acquired using a Thermo Orbitrap Fusion Tribrid Mass Spectrometer under ESI negative ionization mode at a resolution of 240,000. […]

C[C@@H](O)[C@H]1C(=O)N2C(C(=O)O)=C(S[C@@H]3CN[C@H](C(=O)N(C)C)C3)[C@H](C)[C@H]12 [meropenem]
meropenem concentrations in the cecal lumen [1]: increase in meropenem concentrations in the cecum at 4 hours after injection, which rapidly declined afterwards | MIC [2]: 4 µg/mL | abundances of Bacteroides and several other genera (intestinal microbiota; allogeneic mice, day 21): significantly higher abundances | relative abundance of Clostridia (intestinal microbiota; meropenem-treated allogeneic mice, from day 7 until 6 days after stopping): depleted; also recorded: significantly decreased | compositional differences between luminal and mucosal samples (intestinal microbiota; treated allogeneic mice, PERMANOVA testing): loss of this distinction | levels of luminal monosaccharides in the colon [3]: significantly lower concentrations of arabinose and xylose; also recorded: decreased levels of xylose
